From EP2987533B1, “7-substituted piperazin-1-yl fluoroquinolone compounds, their use in the treatment of cancer, pharmaceutical compositions and a method for preparation” (priority 2014, dated 2016)

Key:
[1] = system: MALME-3M; test: NCI one-dose SRB growth assay; assay type: cell-based; details: Homo sapiens; MALME-3M (Melanoma), 10^-5 M, 48 h; read-out: % Growth Inhibition (GI %)
Summary of the method: (§1)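 Compounds tested at a single concentration of 10^-5M on cultured human tumor cells for 48 h. Sulforhodamine B protein staining read spectrophotometrically; values are growth percentage of treated cells relative to untreated controls.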

[2] = system: MDA-MB-435; test: NCI one-dose SRB growth assay; assay type: cell-based; details: Homo sapiens; MDA-MB-435 (Melanoma), 10^-5 M, 48 h; read-out: % Growth Inhibition (GI %)
Summary of the method: as §1

[3] = system: OVCAR-3; test: NCI one-dose SRB growth assay; assay type: cell-based; details: Homo sapiens; OVCAR-3 (Ovarian Cancer), 10^-5 M, 48 h; read-out: % Growth Inhibition (GI %)
Summary of the method: as §1

[4] = system: UACC-62; test: NCI one-dose SRB growth assay; assay type: cell-based; details: Homo sapiens; UACC-62 (Melanoma), 10^-5 M, 48 h; read-out: % Growth Inhibition (GI %)
Summary of the method: as §1

[5] = system: KM12; test: NCI one-dose SRB growth assay; assay type: cell-based; details: Homo sapiens; KM12 (Colon Cancer), 10^-5 M, 48 h; read-out: % Growth Inhibition (GI %)
Summary of the method: as §1

[6] = system: MDA-MB-468; test: NCI one-dose SRB growth assay; assay type: cell-based; details: Homo sapiens; MDA-MB-468 (Breast Cancer), 10^-5 M, 48 h; read-out: % Growth Inhibition (GI %)
Summary of the method: as §1

[7] = system: SR; test: NCI one-dose SRB growth assay; assay type: cell-based; details: Homo sapiens; SR (Leukemia), 10^-5 M, 48 h; read-out: % Growth Inhibition (GI %)
Summary of the method: as §1

[8] = system: RXF 393; test: NCI one-dose SRB growth assay; assay type: cell-based; details: Homo sapiens; RXF 393 (Renal Cancer), 10^-5 M, 48 h; read-out: % Growth Inhibition (GI %)
Summary of the method: as §1

[9] = system: U251; test: NCI one-dose SRB growth assay; assay type: cell-based; details: Homo sapiens, U-251; U251 (CNS Cancer), 10^-5 M, 48 h; read-out: % Growth Inhibition (GI %)
Summary of the method: as §1

[10] = system: PRMI-8226; test: NCI one-dose SRB growth assay; assay type: cell-based; details: Homo sapiens; PRMI-8226 (Leukemia), 10^-5 M, 48 h; read-out: % Growth Inhibition (GI %)
Summary of the method: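 SRB colorimetry after 48 h incubation with a 10^-5M single dose; growth % relative to untreated.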

[11] = system: leukemia; test: NCI five-dose SRB assay, subpanel average; details: 48 h; for GI50 / CC50: Homo sapiens; for GI50: read-out: GI50 (median growth inhibitory); for CC50: read-out: LC50 (median lethal); for TGI (total growth inhibitory): average over leukemia subpanel, five concentrations
[12] = system: A498; test: NCI five-dose SRB growth assay; assay type: cell-based; details: Homo sapiens; A498 (Renal Cancer), 48 h
[13] = system: T-47D; test: NCI five-dose SRB growth assay; assay type: cell-based; details: Homo sapiens, T47D; T-47D (Breast Cancer), 48 h
[14] = system: prostate cancer; test: NCI five-dose SRB assay, subpanel average; details: 48 h; for GI50 / CC50: Homo sapiens; for GI50: read-out: GI50 (median growth inhibitory); for CC50: read-out: LC50 (median lethal); for TGI (total growth inhibitory): average over prostate cancer subpanel, five concentrations
[15] = system: OVCAR-4; test: NCI five-dose SRB growth assay; assay type: cell-based; details: Homo sapiens; OVCAR-4 (Ovarian Cancer), 48 h
[16] = system: IGROV1; test: NCI five-dose SRB growth assay; assay type: cell-based; details: Homo sapiens, IGROV-1; IGROV1 (Ovarian Cancer), 48 h
[17] = system: NCI-H460; test: NCI five-dose SRB growth assay; assay type: cell-based; details: Homo sapiens; NCI-H460 (Non-Small Cell Lung Cancer), 48 h
[18] = system: full panel of about 60 human tumor cell lines; test: NCI five-dose SRB assay, full panel mean; details: 48 h; for CC50 / GI50: Homo sapiens; for CC50: 60 cell, read-out: LC50 MG-MID (Full panel mean-graph midpoint); for GI50: read-out: GI50 MG-MID (Full panel mean-graph midpoint); for TGI MG-MID (Full panel mean-graph midpoint): five concentrations
[19] = system: melanoma; test: NCI five-dose SRB assay, subpanel average; details: 48 h; for GI50 / CC50: Homo sapiens; for GI50: read-out: GI50 (median growth inhibitory); for CC50: read-out: LC50 (median lethal); for TGI (total growth inhibitory): average over melanoma subpanel, five concentrations
[20] = system: COLO 205; test: NCI five-dose SRB growth assay; assay type: cell-based; details: Homo sapiens; COLO 205 (Colon Cancer), 48 h
[21] = system: SK-MEL-5; test: NCI five-dose SRB growth assay; assay type: cell-based; details: Homo sapiens; SK-MEL-5 (Melanoma), 48 h
[22] = system: CAKI-1; test: NCI five-dose SRB growth assay; assay type: cell-based; details: Homo sapiens; CAKI-1 (Renal Cancer), 48 h
[23] = system: KM12; test: NCI five-dose SRB growth assay; assay type: cell-based; details: Homo sapiens; KM12 (Colon Cancer), 48 h
[24] = system: breast cancer; test: NCI five-dose SRB assay, subpanel average; details: 48 h; for GI50 / CC50: Homo sapiens; for GI50: read-out: GI50 (median growth inhibitory); for CC50: read-out: LC50 (median lethal); for TGI (total growth inhibitory): average over breast cancer subpanel, five concentrations
[25] = system: CNS cancer; test: NCI five-dose SRB assay, subpanel average; details: 48 h; for GI50 / CC50: Homo sapiens; for GI50: read-out: GI50 (median growth inhibitory); for CC50: read-out: LC50 (median lethal); for TGI (total growth inhibitory): average over CNS cancer subpanel, five concentrations
[26] = system: SNB-19; test: NCI five-dose SRB growth assay; assay type: cell-based; details: Homo sapiens; SNB-19 (CNS Cancer), 48 h
[27] = system: NSC lung cancer; test: NCI five-dose SRB assay, subpanel average; details: 48 h; for GI50 / CC50: Homo sapiens; for GI50: read-out: GI50 (median growth inhibitory); for CC50: read-out: LC50 (median lethal); for TGI (total growth inhibitory): average over NSC lung cancer subpanel, five concentrations
[28] = system: HT29; test: NCI five-dose SRB growth assay; assay type: cell-based; details: Homo sapiens, HT-29; HT29 (Colon Cancer), 48 h
[29] = system: SK-MEL-28; test: NCI five-dose SRB growth assay; assay type: cell-based; details: Homo sapiens; SK-MEL-28 (Melanoma), 48 h

O=C(O)c1cn(C2CC2)c2cc(N3CCN(S(=O)(=O)c4ccc(Cl)cc4Cl)CC3)c(F)cc2c1=O [Compound 2b]
inhibition at 10 µM [1]: < 10%
inhibition at 10 µM [2]: < 10%
inhibition at 10 µM [3]: < 10%
inhibition at 10 µM [4]: 14.6%
inhibition at 10 µM [5]: < 10%
inhibition at 10 µM [6]: 65.1%
inhibition at 10 µM [7]: 17.7%
inhibition at 10 µM [8]: 67.7%
inhibition at 10 µM [9]: < 10%
inhibition at 10 µM [10]: 21.3%

Cc1cc(C)c(S(=O)(=O)N2CCN(c3cc4c(cc3F)c(=O)c(C(=O)O)cn4C3CC3)CC2)c(C)c1 [Compound 6b]
GI50 [11]: 2.57 µM
CC50 [11]: > 100 µM
TGI (total growth inhibitory) [11]: 76.70 µM
GI50 [12]: 2.37 µM
GI50 [13]: 4.81 µM
GI50 [14]: 3.4 µM
CC50 [14]: > 100 µM
TGI (total growth inhibitory) [14]: c (Compounds showed values > 100µM)
inhibition at 10 µM [1]: 40.3%
inhibition at 10 µM [2]: 23.9%
inhibition at 10 µM [3]: < 10%
inhibition at 10 µM [4]: 23.4%
inhibition at 10 µM [5]: 39.3%
inhibition at 10 µM [6]: 34.9%
inhibition at 10 µM [7]: 60.9%
inhibition at 10 µM [8]: 48.7%
inhibition at 10 µM [9]: 80.3%
inhibition at 10 µM [10]: 77.7%
GI50 [15]: 2.37 µM
GI50 [16]: 2.66 µM
GI50 [17]: 3.04 µM
CC50 [18]: > 100 µM
GI50 [18]: 3.01 µM
TGI MG-MID (Full panel mean-graph midpoint) [18]: 89.12 µM
GI50 [19]: 22.3 µM
CC50 [19]: > 100 µM
TGI (total growth inhibitory) [19]: c (Compounds showed values > 100µM)
GI50 [20]: 3.4 µM
GI50 [21]: 3.03 µM
GI50 [22]: 1.8 µM
GI50 [23]: 3.38 µM
GI50 [24]: 2.85 µM
CC50 [24]: > 100 µM
TGI (total growth inhibitory) [24]: 76.89 µM
GI50 [25]: 2.95 µM
CC50 [25]: > 100 µM
TGI (total growth inhibitory) [25]: c (Compounds showed values > 100µM)
GI50 [26]: 2.56 µM
GI50 [27]: 2.88 µM
CC50 [27]: > 100 µM
TGI (total growth inhibitory) [27]: c (Compounds showed values > 100µM)
GI50 [28]: 3.15 µM

CCn1cc(C(=O)O)c(=O)c2cc(F)c(N3CCN(S(=O)(=O)c4ccc(Cl)cc4)CC3)cc21 [Compound 1a]
GI50 [11]: 2.89 µM
CC50 [11]: > 100 µM
TGI (total growth inhibitory) [11]: 80.96 µM
GI50 [12]: 1.81 µM
GI50 [13]: 3.2 µM
GI50 [14]: 3.21 µM
CC50 [14]: > 100 µM
TGI (total growth inhibitory) [14]: 54.11 µM
inhibition at 10 µM [1]: 76.2%
inhibition at 10 µM [2]: 74.9%
inhibition at 10 µM [3]: 71.8%
inhibition at 10 µM [4]: 78.5%
inhibition at 10 µM [5]: 95.7%
inhibition at 10 µM [8]: 86.6%
inhibition at 10 µM [9]: 88%
inhibition at 10 µM [10]: 86.6%
GI50 [15]: 2.2 µM
GI50 [16]: 3.14 µM
GI50 [17]: 3.16 µM
CC50 [18]: 95.5 µM
GI50 [18]: 2.95 µM
TGI MG-MID (Full panel mean-graph midpoint) [18]: 29.51 µM
GI50 [19]: 2.56 µM
CC50 [19]: 89.7 µM
TGI (total growth inhibitory) [19]: 29.36 µM
GI50 [20]: 2.62 µM
GI50 [21]: 1.8 µM
GI50 [22]: 2.75 µM
GI50 [23]: 4.07 µM
GI50 [24]: 2.95 µM
CC50 [24]: > 100 µM
TGI (total growth inhibitory) [24]: 54.63 µM
GI50 [25]: 3.57 µM
CC50 [25]: > 100 µM
TGI (total growth inhibitory) [25]: 70.26 µM
GI50 [26]: 3.97 µM
GI50 [27]: 2.87 µM
CC50 [27]: > 100 µM
TGI (total growth inhibitory) [27]: 53.38 µM
GI50 [28]: 2.64 µM
GI50 [29]: 4.88 µM
